# Test results from PubChem BioAssay (NCI).
#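 These data come from cells grown in 96-well plates and exposed to compound for 48 hours at five concentrations. Here, GI50 denotes the concentration required for 50% inhibition of growth. At the TGI there is no net growth.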
# Key:
# Test in all cases: NCI anticancer screen, dose series, 48 h
# HT29 colon = tested on: HT29 colon
# CCRF-CEM leukemia = tested on: CCRF-CEM leukemia
# NCI-H522 lung = tested on: NCI-H522 lung
# UO-31 renal = tested on: UO-31 renal
# SK-OV-3 ovarian = tested on: SK-OV-3 ovarian
# COLO 205 colon = tested on: COLO 205 colon
# TK-10 renal = tested on: TK-10 renal
# SN12C renal = tested on: SN12C renal
# CAKI-1 renal = tested on: CAKI-1 renal
# 786-0 renal = tested on: 786-0 renal
# UACC-62 melanoma = tested on: UACC-62 melanoma
# SF-295 CNS = tested on: SF-295 CNS
# OVCAR-5 ovarian = tested on: OVCAR-5 ovarian
# SW-620 colon = tested on: SW-620 colon
# SF-268 CNS = tested on: SF-268 CNS
# HCT-15 colon = tested on: HCT-15 colon
# MALME-3M melanoma = tested on: MALME-3M melanoma
# MDA-MB-435 = tested on: MDA-MB-435
# EKVX NSCLC = tested on: EKVX NSCLC
# DU-145 prostate = tested on: DU-145 prostate
# SK-MEL-28 melanoma = tested on: SK-MEL-28 melanoma
# SK-MEL-5 melanoma = tested on: SK-MEL-5 melanoma
# SF-539 CNS = tested on: SF-539 CNS
# SR leukemia = tested on: SR leukemia
# SK-MEL-2 melanoma = tested on: SK-MEL-2 melanoma
# BT-549 breast = tested on: BT-549 breast
# HOP-62 NSCLC = tested on: HOP-62 NSCLC
# A498 renal = tested on: A498 renal
smiles,measurement,setting,value
Nc1cc(F)ccc1NC(=O)c1ccc(NC(=O)C/C=C/c2cccnc2)cn1,GI50,HT29 colon,1500 nM
same,TGI,HT29 colon,> 50000 nM
same,GI50,CCRF-CEM leukemia,200 nM
same,TGI,CCRF-CEM leukemia,> 50000 nM
same,GI50,NCI-H522 lung,629 nM
same,TGI,NCI-H522 lung,30000 nM
same,GI50,UO-31 renal,1630 nM
same,TGI,UO-31 renal,> 50000 nM
same,GI50,SK-OV-3 ovarian,2580 nM
same,TGI,SK-OV-3 ovarian,> 50000 nM
same,GI50,COLO 205 colon,576 nM
same,TGI,COLO 205 colon,10400 nM
same,GI50,TK-10 renal,673 nM
same,TGI,TK-10 renal,8160 nM
same,GI50,SN12C renal,364 nM
same,TGI,SN12C renal,> 50000 nM
same,GI50,CAKI-1 renal,1880 nM
same,TGI,CAKI-1 renal,13800 nM
same,GI50,786-0 renal,2200 nM
same,TGI,786-0 renal,> 50000 nM
same,GI50,UACC-62 melanoma,1310 nM
same,TGI,UACC-62 melanoma,5950 nM
same,GI50,SF-295 CNS,1800 nM
same,TGI,SF-295 CNS,7360 nM
same,GI50,OVCAR-5 ovarian,781 nM
same,TGI,OVCAR-5 ovarian,> 50000 nM
same,GI50,SW-620 colon,208 nM
same,TGI,SW-620 colon,12500 nM
same,GI50,SF-268 CNS,2240 nM
same,TGI,SF-268 CNS,> 50000 nM
same,GI50,HCT-15 colon,667 nM
same,TGI,HCT-15 colon,> 50000 nM
same,GI50,MALME-3M melanoma,465 nM
same,TGI,MALME-3M melanoma,4810 nM
same,GI50,MDA-MB-435,1250 nM
same,TGI,MDA-MB-435,7180 nM
same,GI50,EKVX NSCLC,2490 nM
same,TGI,EKVX NSCLC,> 50000 nM
same,GI50,DU-145 prostate,1100 nM
same,TGI,DU-145 prostate,5160 nM
same,GI50,SK-MEL-28 melanoma,1350 nM
same,TGI,SK-MEL-28 melanoma,4230 nM
same,GI50,SK-MEL-5 melanoma,960 nM
same,TGI,SK-MEL-5 melanoma,1900 nM
same,GI50,SF-539 CNS,177 nM
same,TGI,SF-539 CNS,4000 nM
same,GI50,SR leukemia,876 nM
same,TGI,SR leukemia,> 50000 nM
same,GI50,SK-MEL-2 melanoma,2010 nM
same,TGI,SK-MEL-2 melanoma,> 50000 nM
same,GI50,BT-549 breast,1300 nM
same,TGI,BT-549 breast,8310 nM
same,GI50,HOP-62 NSCLC,1990 nM
same,TGI,HOP-62 NSCLC,> 50000 nM
same,GI50,A498 renal,937 nM
same,TGI,A498 renal,3370 nM
